This is an account of results in patent US8231861B2, “Pancreatitis” (priority 2003, dated 2012).

In data set [1] the test system is wild type and TLR4−/− transgenic mice. The following applies: mouse, in vivo, ip.
Experimental: Studies were performed on wild type and TLR4−/− transgenic mice weighing about 25-30 grams. Animals were housed in cages under standard conditions at room temperature with a twelve-hour light and dark cycle. Food and drinking water were available ad libitum. Secretagogue-induced pancreatitis was elicited by the hourly (twelve times) intraperitoneal injection of caerulein (50 μg/kg). […] One hour after the final caerulein or saline injection, animals were sacrificed by CO2 asphyxia, and tissue and blood samples were rapidly prepared for study. Harvested blood was allowed to clot and then centrifuged, and serum was obtained for measurement of amylase. […]
Tissue myeloperoxidase (MPO) activity was used as a marker for the sequestration of neutrophils within the pancreas by quantitating photometrically using 3,3′,5,5′-tetramethylbenzidine as a substrate. Pancreatic edema was quantitated by measuring tissue water content and expressing it as a percentage of tissue wet weight. Serum amylase activity was quantitated as described in Singh et al., J. Clin. Invest., 108:1387-1395 (2001). The extent of pancreatic acinar cell necrosis was quantitated morphometrically by an observer who was not aware of the sample identity. […] Ten randomly chosen microscopic fields (×125) were examined for each tissue sample, and the extent of acinar cell injury/necrosis was expressed as a percentage of total acinar tissue. […]
For data set [2], the system named is wild type and TLR-4 knock out mice. Briefly: Arginine-induced acute pancreatitis in wild type and TLR-4 knock out mice. Type of data set: in vivo. As to conditions: for pancreatitis outcome (in words): arginine 800 mg/100 g i.p. in two halves, evaluated three days later; for MPO activity in pancreas: after arginine i.p., FIG. 10. How it is done: To evaluate the effect of the absence of TLR4 in another model of pancreatitis, a new mouse model was created. […] See, e.g., Tani et al., Dig. Dis. Sci. 35, 367-374 (1990). Briefly, pancreatitis was induced in wild type and TLR-4 knock out mice by injecting (i.p.) arginine at a dose of 800 mg/100 g body weight. This dose of arginine was divided in two parts, one half injected at the beginning of the experiment and the other half injected one hour later. Three days later mice were sacrificed and the parameters relating to the severity of pancreatitis were evaluated. Analysis was performed substantially as described above.

On to caerulein, for which the “reduction of serum amylase activity in TLR4−/− mice as compared to wild type mice” value in data set [1] is given as “more than 1.6 fold”.

For the molecule `N=C(N)NCCC[C@H](N)C(=O)O` [arginine], the “pancreatitis outcome (in words)” value in data set [2] (TLR4 knock out mice) is given as “significantly milder pancreatitis”; in data set [2] (normal (wild type) mice), “pancreatitis that was more severe than that observed with caerulein administration”. The “MPO activity in pancreas” value in data set [2] (TLR4−/− mice) stood at 6.8±6.2; in data set [2] (wild type mice) it was 472±320. In data set [2] (after administration of arginine i.p., FIG. 9), the “reduction of serum amylase activity in TLR4−/− mice as compared to wild type mice” value is “more than 2.5 fold”.
